Results taken from patent US20080108661A1, “Medicaments” (AstraZeneca AB, priority 2006, published 2008).
Blank lines part the entries; values can stand above or below the molecule they belong to.

Columns and labels:
CCR3 = target: T1, CCR3 (Homo sapiens, UniProt P51677); test: Chemokine (CCR3 ligand) stimulation of human OA cartilage explant, gene expression (low density array Q-PCR); assay type: cell-based
T1 construct: Human osteoarthritic cartilage is obtained during total knee replacement surgery; from tissue; host or cells: human osteoarthritic knee articular cartilage explants (femoral condyles and tibial plateau)
T1 sequence (P51677 1-355): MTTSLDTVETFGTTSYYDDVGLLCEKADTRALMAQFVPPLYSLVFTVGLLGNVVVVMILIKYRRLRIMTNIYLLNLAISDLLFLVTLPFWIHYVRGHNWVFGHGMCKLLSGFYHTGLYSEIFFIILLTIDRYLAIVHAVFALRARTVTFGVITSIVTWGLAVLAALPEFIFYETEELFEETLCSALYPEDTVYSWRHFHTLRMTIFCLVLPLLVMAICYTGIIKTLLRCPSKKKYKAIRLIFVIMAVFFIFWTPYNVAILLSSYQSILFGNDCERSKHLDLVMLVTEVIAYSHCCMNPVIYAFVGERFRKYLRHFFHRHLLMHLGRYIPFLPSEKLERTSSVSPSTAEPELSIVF
Text: (ii) Chemokine Stimulation of Human Cartilage Explant
Human osteoarthritic cartilage is obtained during total knee replacement surgery. Full-depth cartilage slices are obtained from both the femoral condyles and the tibial plateau and explant discs removed using a 5 mm diameter KAI sterile dermal biopsy punch. After dissection, the explants are all pooled in a Petri dish. For each condition, sixteen explants are randomly taken from the Petri dish and cultured in polypropylene 96-well plates with phenol red free Dulbecco's Modified Eagle Medium (DMEM; Gibco, Grand Island, N.Y.), 150 μg/ml gentamicin, 1.5 μg/ml fungizone and 100 units/ml penicillin, 100 μg/ml streptomycin and L-Glutamine.
After an initial 48 hour pre-stimulation, rest period, experimental reagents are added for 24, 48 or 96 hours. Explants are incubated with the appropriate concentration of compound alone, or DMSO as a control, for 20 minutes prior to addition of the chemokine. Cartilage is subsequently treated with either vehicle control (plus DMSO); chemokine (at 30-300 ng/ml) plus DMSO; or chemokine (30 ng/ml) plus the compound of Example 1. Conditioned media are collected 24, 48 or 96 hours post stimulation and stored at −20° C. prior to analysis. Cartilage explants are also collected and snap frozen in liquid nitrogen, prior to RNA extraction.
Extraction of RNA from Cartilage Explants
Each condition is composed of sixteen cartilage explant discs, which are pooled prior to snap freezing in liquid nitrogen. These pooled samples are ground to a fine powder under liquid nitrogen then resuspended in 10 ml trizol in polypropylene Oakridge tubes, and RNA extracted according to the manufacturer's protocol. The RNA pellet is resuspended in approx 500 μl RNAse and DNAse free water and then combined with 1.75 ml Qiagen RLT. RNA is further purified with Qiagen RNEasy mini columns (Qiagen Cat# 74104), as described in the manufacturer's protocol, including on column DNA digestion. The RNA obtained by these procedures is analysed using Agilent bioanalyser technology, according to the manufacturer's instructions, to determine the quantity and quality.
Gene Expression Analysis: the 96 and 48 Gene Fingerprints Using Low Density Arrays (Q-PCR)
Low-density gene arrays [quantitative polymerise chain reaction (Q-PCR) method] with either 96 or 48 genes pertinent to OA (as identified by Affymetrix microarray analysis of OA articular cartilage) are used to assess the effects of treating human diseased cartilage explants with the chemokines eotaxin-2 or RANTES, alone or in combination with the compound of Example 1. Gene expression changes were reported as fold change normalised against a standard non-affected gene: GAPDH.

[1] = system: murine articular knee joint; test: Histamine-induced joint oedema, murine articular knee joint (calliper measurements); assay type: in vivo, mouse
Text: (§1) (iii) In Vivo Functional Validation of Histamine-Induced Responses Murine Articular Knee Joint
(§2) It is hypothesised that histamine released by trafficking mast cells or by the de novo synthesis of histamine by articular chondrocytes induces a H1-dependant increase in COX-2 mRNA expression and elevated PGE2 synthesis in synovial fibroblasts and articular chondrocytes. To evaluate the role of histamine in pathological processes in the joint, a pharmacodynamic mouse model was developed to investigate the effect of intra-articular injection (IAI) of histamine on joint swelling using calliper measurements, and measuring PGE2 and/or 11-6 levels from synovial knee joint ravages.
(§3) Adult C57B16 mice were dosed with either vehicle or test compound 1 hour prior to intra-articular injection of histamine (5 μmol). Swelling was induced by injection of 6 μl of histamine/saline suspension into the knee joint cavity under inhalation anaesthesia with isoflurane. Joint swelling was quantified by calliper measurements taken at 1, 6, 12, 24, 36 and 48 hr. Terminal synovial fluid knee lavages were sampled and levels of the inflammatory mediator I1-6 were measured in the fluid from synovial knee joint ravages.

[2] = system: human articular chondrocytes (HAC)
Method: (i) Isolation of Human Articular Chondrocytes (HAC) from OA Cartilage for Histamine stimulation. HAC are isolated from cartilage from osteoarthritic tissues removed at joint replacement. Cartilage is incubated overnight in 2 mg/ml collagenase in DMEM+10% FCS+PSG at 37° C., with shaking. The resulting cell suspension is filtered to remove undigested cartilage and the cells are centrifuged at 1200 rpm for 10 minutes. Cells are resuspended in DMEM plus 10% FCS PSG/NEAA/fungizone/gentamycin, plated at approx 5×10^−6 in a T-75 and grown to confluence. Cells are subsequently plated at approx 10,000 cells per well into 96 well plates for stimulation with histamine. Triplicate wells of first passage HAC are treated with either DMEM (10% or 0% FCS) alone (control), or DMEM (10% or 0% FCS) plus histamine (dose range 10 nM up to 1 mM). Cells are incubated at 37° C. for 24 hours, the conditioned medium harvested, and assayed for PGE2, MMP or cytokine production by enzyme linked immunosorbent assay (ELISA). […] For some experiments cells are incubated with specific antagonists for 20 minutes prior to, and in combination with, histamine stimulation.

[3] = system: human articular chondrocytes (HAC); remark: listed apart in the source
[4] = system: murine articular knee joint; settings: intra-articular histamine injection, mice
Text: as §1, §2, §3

[5] = Eotaxin 2 stimulation, donor 014—04

inhibition of CCR3 ligand-induced increase in ADAMTS4, MMP13, IL-6, IL-8 and MMP2 mRNA expression (CCR3; at 3×pA2, n=3 (FIG. 3)): inhibited
Molecule: O=C(NC[C@@H](O)CN1CCC(Oc2ccc(Cl)c(Cl)c2)CC1)c1sc(=O)[nH]c1C(F)(F)F [Example 1, N-{(2R)-3-[4-(3,4-Dichlorophenoxy)piperidin-1-yl]-2-hydroxypropyl}-2,3-dihydro-2-oxo-4-(trifluoromethyl)-5-thiazolecarboxamide benzenesulfonate Form A]

Molecule: Clc1ccc2c(c1)CCc1cccnc1C2=C1CCNCC1 [desloratadine]
histamine-induced joint swelling under treatment ([1]; 5.1 mg/kg, dosed 1 hour prior to intra-articular histamine): almost completely ablated

Molecule: O=C(O)COCCN1CCN(C(c2ccccc2)c2ccc(Cl)cc2)CC1 (stereo not shown) [cetirizine]
inhibition of histamine-induced PGE2 release ([2]; 100 nM (FIG. 2)): inhibited
inhibition of histamine-induced increase in Cox2 mRNA expression ([3]; 100 nM): inhibited

Molecule: NCCc1c[nH]cn1 [histamine, 2-(4-imidazolyl)-ethylamine]
release of PGE2 ([2]; histamine stimulation, n=6 (FIG. 2)): dose dependent increase
Cox2 mRNA expression levels ([3]; histamine stimulation): increase
increase in joint oedema compared to vehicle control animals ([1]; intra-articular injection of histamine (5 μmol), C57B16 mice): 5 fold
increase in release of IL-6 into the synovial fluid [4]: > 60%

increased expression of IL-6 (CCR3; [5]): 14 fold
increased expression of IL-8 (CCR3; [5]): 11 fold
elevation of periostin expression (CCR3; donor 014—04): 2 fold
enhanced expression of ADAMTS4 (CCR3; donor 014—04): 3.6 fold
enhanced expression of ADAMTS 5 (CCR3; donor 014—04): 6 fold
B1: Eotaxin 2: the CCR3 ligand, a chemokine used to stimulate cartilage explants (protein, UniProt O00175 27-119, looked up)
C-C motif chemokine 24: VVIPSPCCMFFVSKRIPENRVVSYQLSSRSTCLKAGVIFTTKKGQQFCGDPKQEWVQRYMKNLDAKQKKASPRARAVAVKGPVQRYPGNQTTC
